Assay results reported in patent publication EP0652009A1, “Identification and use of protease inhibitors” (ELI LILLY AND COMPANY, priority 1993, dated 1995).

What follows are compounds tested against Cathepsin D (Homo sapiens, UniProt P07339) (assay: Assay 3: cathepsin D inhibition activity (non-cellular assay, chromogenic substrate)). Details: 4 µM test compound; inhibition of initial rate relative to control; cathepsin D from human placental tissue.
Type: biochemical
Design: Frozen human placental tissue was thawed and homogenized; from tissue; host or cells: human placenta
Protocol: A third non-cellular assay for determining in vitro aspartyl protease inhibitory activity is generally described in Jupp, R.A. et al., (1990) Biochem. J., 265:871-878 and Rao et al., J. Med. Chem. (1993), in press. The assay is carried out by incubating a test compound with a suitable aspartyl protease, such as cathepsin D, in the presence of a chromogenic substrate. The inhibition constant, Ki, value may then be determined by quantifying the competitive inhibition of the hydrolysis of the chromogenic substrate. A variety of chromogenic substrates that are useful for assaying aspartyl protease activity are discussed in Dunn, et al., (1986) Biochem. J., 237:899-906. A preferred chromogenic substrate for a cathepsin D assay is disclosed in Scarborough, P.E. et al., Protein Science, (1993), 2:264-276.
Concentrations of substrate solutions and cleavage products may be verified using amino acid analysis. The enzyme preparations may be titrated with a tightly binding inhibitor to quantitate the active concentration of the enzyme. Enzyme concentrations are typically in the range of from 1-6 nM. Stock solutions of the test compound are prepared at concentrations ranging from 1.0 to 5.0 mg/mL, and then 50-100 µL portions of these stock solutions may be further diluted to a concentration in the range of 5 to 300 µM for rate determinations.
[…] Then, the test compounds are assayed over a concentration range of, for example, 5 to 300 µM for rate determinations.
A decrease in absorbance in the range of 284-324 nm may be monitored using a spectrophotometer. Absorbance readings are typically taken at various timepoints. The initial velocities are then plotted versus the initial substrate concentration. […] Estimates of Ki may then be determined using the Dixon construction. Dixon, M., (1953) Biochem J., 55:170-171.
If the ratio of the total active enzyme concentration to the estimated Ki value ([E]t/Ki) is less than 0.2, then the precise Ki value may be computed by using a non-linear curve fitting program based on the equation: v= Vmax [S]/[S] + Km (1 + [I]/Ki ) [formula] where v is the initial rate, [S] is the initial substrate concentration, [I] is the inhibitor concentration and Km and Ki are defined above. […] P.J.F., (1972) Biochem J., 127:321-333. This Assay is exemplfied in Assay 3.
The homogenate was centrifuged at 10,000 rpm for 30 minutes in a Sorvall GSA rotor. The supernatant was adjusted to pH 3.7 using 5.7N HCl and then sodium acetate was added to a concentration of 0.1M. The resultant mixture was incubated for 30 minutes at 0°C, resulting in the formation of a precipitate. This precipitate was removed by centrifugation (30 minutes, 10,000 rpm). The acidic supernatent was applied to a chromatography column (pepstatinyl agarose equilibrated with 0.1M sodium acetate, pH 3.5, 0.1% Brij 35, and 1M NaCl), washed until the OD₂₈₀ of the effluent returned to baseline, and then eluted with 50mM Tris-HCl, pH 8.6, 0.1% Brij 35, and 1M NaCl. The eluent was dialyzed against 10mM sodium phosphate, pH 7.0, 0.1% Brij 35, and 0.1M NaCl, and then applied to a 1 mL DEAE-Sephacel column equilibrated with the same buffer. Cathepsin D was recovered in the breakthrough fraction.
The enzyme mixture (125 µL buffer (0.1M sodium formate at pH 3.7), 1 µL of a 1mM solution of test compound, 4 µL of DMSO, enzyme and water to provide a total volume of 230 µL) was vortexed and prewarmed for four minutes before the addition of the chromogenic substrate. After warming, the enzyme mixture was added to 20 µL of a […] dilution of substrate solution. A control reaction mixture was similarly prepared without the addition of the test compound. The percent of inhibition of the initial rate of reaction in the presence of a particular concentration of test compound (i.e. 4 µM) may be determined for the test compound by monitoring the reaction mixture in parallel to the control reaction. […]

Cathepsin D, sequence (P07339 169-412 limits assumed): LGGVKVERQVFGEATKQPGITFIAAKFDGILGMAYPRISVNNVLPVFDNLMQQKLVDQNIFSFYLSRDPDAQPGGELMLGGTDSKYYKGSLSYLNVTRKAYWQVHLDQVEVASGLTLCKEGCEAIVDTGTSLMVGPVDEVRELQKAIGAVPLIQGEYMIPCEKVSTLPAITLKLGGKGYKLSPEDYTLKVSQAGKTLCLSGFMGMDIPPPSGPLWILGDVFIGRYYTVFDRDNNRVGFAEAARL
Cathepsin D, sequence (P07339 65-162 limits assumed): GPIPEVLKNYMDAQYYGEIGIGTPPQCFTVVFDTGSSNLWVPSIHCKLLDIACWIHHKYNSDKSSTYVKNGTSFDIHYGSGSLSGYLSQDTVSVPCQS

Compound | % inhibition at 4µ M [%]
[1S-(1R*,4R*,5S*)]-N-(1-(2-Amino-2-oxoethyl)-2-oxo-3-aza-4-phenylmethyl-5-hydroxy-6-(2-(1-t-butylamino-1- oxomethyl)phenyl)hexyl)-2-(6,7,8,9-tetrahydronaphthyl) carboxamide [Example 11] | 32

Same assay, conditions: 4 µM test compound; inhibition of initial rate relative to control; cathepsin D from human placental tissue; read-out: % inhibition at 4µ M

inhibition at 4 µM [%] | Compound
43 | CC(C)(C)NC(=O)c1ccccc1C[C@@H](O)[C@H](Cc1ccccc1)NC(=O)[C@@H](CC(=O)O)NS(C)(=O)=O [Example 31, [2R-(2R*,3S*,6R*)]-N-t-Butyl-2-[2-hydroxy-3-phenylmethyl-4-aza-5-oxo-6-N(methylsulfonyl)amino-7-carboxy]heptyl benzamide]
36 | CC(C)(C)NC(=O)c1ccccc1C[C@@H](O)[C@H](Cc1ccccc1)NC(=O)[C@H](CC(=O)NCc1ccccn1)NC(=O)c1ccc2ccccc2n1 [Example 16, [1S-(1R*,4R*,5S*)]-N-(1-(2-(N-2-Pyridylmethyl)amino)-2-oxoethyl]-2-oxo-3-aza-4-phenylmethyl-5-hydroxy-6-(2-(1-t-butylamino-1-oxomethyl)phenyl)hexyl)-2-quinolinyl carboxamide]
48 | CC(C)(C)NC(=O)c1ccccc1C[C@@H](O)[C@H](Cc1ccccc1)NC(=O)[C@H](CC(N)=O)NC(=O)c1cc(Cl)c2ccccc2n1 [Example 19, [1S-(1R*,4R*,5S*)]-N-(1-(2-Amino-2-oxoethyl)-2-oxo-3-aza-4-phenylmethyl-5-hydroxy-6-(2-(1-t-butylamino-1-oxomethyl)phenyl)hexyl)-4-chloroquinolin-2-yl carboxamide]
22 | CC(C)(C)NC(=O)c1sccc1C[C@@H](O)[C@H](Cc1ccccc1)NC(=O)[C@H](CC(N)=O)NC(=O)c1ccc2ccccc2n1 [Example 14, [1S-(1R*,4R*,5S*)]-N-(1-(2-Amino-2-oxoethyl)-2-oxo-3-aza-4-phenylmethyl-5-hydroxy-6-(2-(1-t-butylamino-1-oxomethyl)thien-3-yl)hexyl)-2-quinolinyl carboxamide]
49 | CC(C)(C)NC(=O)c1ccccc1C[C@@H](O)[C@H](Cc1ccccc1)NC(=O)[C@H](CC(=O)O)NC(=O)c1ccc2ccccc2n1 [Example 15, [1S-(1R*,R*,5S*)]-N-(1-(2-Hydroxy-2-oxoethyl)-2-oxo-3-aza-4-phenylmethyl-5-hydroxy-6-(2-(1-t-butylamino-1-oxomethyl)phenyl)hexyl)-2-quinolinyl carboxamide]

Continued, compound first:

Compound | inhibition at 4 µM [%]
CC[C@H](C)[C@H](NC(=O)OCc1ccc2ccccc2n1)C(=O)N[C@@H](Cc1ccccc1)[C@@H]1O[C@@H]1[C@H](Cc1ccccc1)NC(=O)[C@@H](NC(=O)OCc1ccc2ccccc2n1)[C@@H](C)CC [Example 3, 1,6-Diphenyl-2(S);5(S)-di[N-[2(S)-N[(quinolin-2-ylmethoxy)carbonyl]amino-3(S)-methylpentanoyl]amino]-3,4-cis-epoxyhexane] | 40
CC(C)(C)NC(=O)c1ccccc1C[C@@H](O)[C@H](Cc1ccccc1)NC(=O)[C@H](CC(N)=O)NS(=O)(=O)CCc1cccc2ccccc12 [Example 32, [2R-(2R*,3S*,6S*)]-N-t-Butyl-2-[2-hydroxy-3-phenylmethyl-4-aza-5-oxo-6-N(naphth-1-ylethylsulfonyl)amino-7-carbamoyl]heptyl benzamide] | 12
CC(C)(C)NC(=O)c1ccccc1C[C@@H](O)[C@H](Cc1ccccc1)NC(=O)[C@H](Cc1cnc[nH]1)NC(=O)[C@@H](Cc1cccc2ccccc12)NC(=O)OC(C)(C)C [Example 28, [2R-(2R*,3S*,6S*,9R*)]-N-t-Butyl-2-[2-hydroxy-3-phenylmethyl-4,7-diaza-5,8-dioxo-6-(imidazol-4-ylmethyl)-9-N(t-butoxycarbonyl)amino-10-naphth-1-yl]decyl benzamide] | 6
CC(C)(C)NC(=O)c1ccccc1C[C@@H](O)[C@H](Cc1ccccc1)NC(=O)[C@H](Cc1c[nH]cn1)NC(=O)[C@H](Cc1cccc2ccccc12)NC(=O)OC(C)(C)C [Example 27, [2R-(2R*,3S*,6S*,9S*)]-N-t-Butyl-2-[2-hydroxy-3-phenylmethyl-4,7-diaza-5,8-dioxo-6-(imidazol-4-ylmethyl)-9-N(t-butoxycarbonyl)amino-10-naphth-1-yl]decyl benzamide] | 40

Same assay, conditions: cathepsin D from human placental tissue, chromogenic substrate, pH 3.7, 37°C

Ki [nM] | Compound
2200 ± 200 | CC(C)(C)NC(=O)c1ccccc1C[C@@H](O)[C@H](Cc1ccccc1)NC(=O)[C@H](CC(=O)NCc1nc2ccccc2[nH]1)NC(=O)c1ccc2ccccc2n1 [Example 18, [1S-(1R*,4R*,5S*)]-N-(1-(2-(N-2-Benzimidazolylmethyl)amino)-2-oxoethyl)-2-oxo-3-aza-4-phenylmethyl-5-hydroxy-6-(2-(1-t-butylamino-1-oxomethyl)phenyl)hexyl)-2-quinolinyl carboxamide]
1170 | Cc1ccc2ccc(C(=O)N[C@@H](CC(N)=O)C(=O)N[C@@H](Cc3ccccc3)[C@H](O)Cc3ccccc3C(=O)NC(C)(C)C)nc2c1 [Example 8, [lS-(1R*,4R*,5S*)]-N-(1-(2-amino-2-oxoethyl)-2-oxo-3-aza-4-phenylmethyl-5-hydroxy-6-(2-(1-t-butylamino-1-oxomethyl)phenyl)hexyl)-7-methylquinolin-2-yl carboxamide]
900 ± 100 | CC(C)(C)NC(=O)c1ccccc1CC(O)C(Cc1ccccc1)NC(=O)C(CC(N)=O)NC(=O)c1ccc2cccc(C(F)(F)F)c2n1 (stereo not drawn) [Example 22, [1S-(1R*,4R*,5S*)]-N-(1-(2-Amino-2-oxoethyl)-2-oxo-3-aza-4-phenylmethyl-5-hydroxy-6-(2-(1-t-butylamino-1-oxomethyl)phenyl)hexyl)-8-trifluoromethyl-quinolin-2-yl carboxamide]
18 | CC(C)C(NC(=O)OCc1ccc2ccccc2n1)C(=O)NC(Cc1ccccc1)C(O)C(O)C(Cc1ccccc1)NC(=O)C(NC(=O)OCc1ccc2ccccc2n1)C(C)C [Example 34, 1,6-Diphenyl-2(S),5(S)-di[N-[2(S)-N(quinolin-2-ylmethoxycarbonyl)amino-3-methylbutanoyl]amino]-3,4-dihydroxyhexane]

Second part, the compound before the results:

Compound | Ki [nM]
CC(C)(C)NC(=O)c1ccccc1CC(O)C(Cc1ccccc1)NC(=O)C(CC(N)=O)NC(=O)c1ccc2ccccc2n1 (stereo not drawn) [Example 6, [1S-(1R*,4R*,5S*)]-N-[1-(2-amino-2-oxoethyl)-2-oxo-3-aza-4-phenylmethyl-5-hydroxy-6-(2-(1-t-butylamino-1-oxomethyl)phenyl)hexyl]-2-quinolinyl carboxamide] | 1800 ± 260
CC(C)(C)NC(=O)c1ccccc1CC(O)C(Cc1ccccc1)NC(=O)C(CC(N)=O)NC(=O)C(Cc1cccc2ccccc12)NC(=O)OC(C)(C)C (stereo not drawn) [Example 25, [2R-(2R*,3S*,6S*,9R*)]-N-t-Butyl-2-[2-hydroxy-3-phenylmethyl-4,7-diaza-5,8-dioxo-6-(2-amino-2-oxoethyl)-9-N(t-butoxycarbonyl)amino-10-naphth-1-yl]decyl benzamide] | 1440 ± 260
CCC(C)C(NC(=O)N(C)Cc1ccc2ccccc2n1)C(=O)NC(Cc1ccccc1)C1OC1C(Cc1ccccc1)NC(=O)C(NC(=O)N(C)Cc1ccc2ccccc2n1)C(C)CC [Example 5, 1,6-Diphenyl-2(S);5(S)-di[N-[2(S)-N[[N(methyl)-N(quinolin-2-ylmethyl)amino]carbonyl]amino-3(S)-methylpentanoyl]amino]-3,4-cis-epoxyhexane] | 240
